target: T1, human TLR7 (Homo sapiens, UniProt Q9NYK1); test: TLR7 inhibition reporter assay (HEK-Blue SEAP); format: cell-based; conditions: HEK-Blue cells overexpressing human TLR7, gardiquimod 7.5 μM, 22 hour incubation
T1 construct: host or cells: HEK-Blue cells
T1 sequence (Q9NYK1 27-1049): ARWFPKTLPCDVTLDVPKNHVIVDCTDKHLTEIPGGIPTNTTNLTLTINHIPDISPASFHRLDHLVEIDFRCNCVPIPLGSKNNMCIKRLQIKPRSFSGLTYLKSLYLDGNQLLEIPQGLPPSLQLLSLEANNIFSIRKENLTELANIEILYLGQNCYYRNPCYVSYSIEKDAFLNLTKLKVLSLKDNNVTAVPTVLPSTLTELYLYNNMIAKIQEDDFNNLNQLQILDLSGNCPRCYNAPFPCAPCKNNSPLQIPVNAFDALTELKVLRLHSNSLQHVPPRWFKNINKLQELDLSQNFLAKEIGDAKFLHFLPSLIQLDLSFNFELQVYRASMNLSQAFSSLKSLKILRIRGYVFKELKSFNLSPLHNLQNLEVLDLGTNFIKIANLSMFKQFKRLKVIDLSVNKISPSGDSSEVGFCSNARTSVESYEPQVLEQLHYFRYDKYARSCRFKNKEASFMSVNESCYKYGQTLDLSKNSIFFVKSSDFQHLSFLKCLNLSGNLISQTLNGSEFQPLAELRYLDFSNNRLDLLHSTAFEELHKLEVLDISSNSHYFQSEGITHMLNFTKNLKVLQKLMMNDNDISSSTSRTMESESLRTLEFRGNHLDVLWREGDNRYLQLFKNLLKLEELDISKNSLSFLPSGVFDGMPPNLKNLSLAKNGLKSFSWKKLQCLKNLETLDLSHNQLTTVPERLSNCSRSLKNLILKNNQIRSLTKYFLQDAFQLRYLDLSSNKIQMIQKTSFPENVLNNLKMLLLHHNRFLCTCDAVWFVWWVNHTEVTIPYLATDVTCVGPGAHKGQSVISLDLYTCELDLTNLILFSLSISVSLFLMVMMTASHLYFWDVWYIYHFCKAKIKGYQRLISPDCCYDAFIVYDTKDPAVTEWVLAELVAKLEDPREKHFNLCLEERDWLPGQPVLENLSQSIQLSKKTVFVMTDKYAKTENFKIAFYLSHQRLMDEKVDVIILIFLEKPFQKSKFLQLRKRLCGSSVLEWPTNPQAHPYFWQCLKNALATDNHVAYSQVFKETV
Method in brief: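 22 h, 37° C, 5% CO2 incubation; compounds 0.05 nM-50 μM final; TLR7 cells 15000/well, TLR8 20,000/well. Readout: SEAP via HEK-Blue Detection medium. % inhibition = signal reduction versus agonist + DMSO wells, referenced to known inhibitor.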

Question: With `CCc1cc2c(cc1-c1cc(OC)c3ncnn3c1)[nH]c(=O)n2[C@@H]1CCCN(C(C)C)C1` [Example 172, (R)-6-ethyl-1-(1-isopropylpiperidin-3-yl)-5-(8-methoxy-[1,2,4]triazolo[1,5-a]pyridin-6-yl)-1,3-dihydro-2H-benzo[d]imidazol-2-one] as the compound, how does the IC50 read?
Answer: 1.45 nM

Question: How did the IC50 turn out when `CCc1cc2c(cc1-c1cc(OC)c3ncnn3c1)[nH]c(=O)n2[C@@H]1CCCN(C2COC2)C1` [Example 173, (R)-6-ethyl-5-(8-methoxy-[1,2,4]triazolo[1,5-a]pyridin-6-yl)-1-(1-(oxetan-3-yl)piperidin-3-yl)-1,3-dihydro-2H-benzo[d]imidazol-2-one] was run?
Answer: 32 nM

Question: `CCc1cc2c(cc1-c1cc(OC)c3ncnn3c1)[nH]c(=O)n2[C@@H]1CCCN(C)C1` [Example 174, (R)-6-ethyl-5-(8-methoxy-[1,2,4]triazolo[1,5-a]pyridin-6-yl)-1-(1-methylpiperidin-3-yl)-1,3-dihydro-2H-benzo[d]imidazol-2-one] was tested. Which IC50 did it give?
Answer: 1.14 nM

Question: Which IC50 does the source give for `CCc1cc2c(cc1-c1cc(OC)c3ncnn3c1)[nH]c(=O)n2[C@@H]1CCCN(CC2CCOCC2)C1` [Example 175, (R)-6-ethyl-5-(8-methoxy-[1,2,4]triazolo[1,5-a]pyridin-6-yl)-1-(1-((tetrahydro-2H-pyran-4-yl)methyl)piperidin-3-yl)-1,3-dihydro-2H-benzo[d]imidazol-2-one] here?
Answer: 0.83 nM

Question: For `CCc1cc2c(cc1-c1cc(OC)c3ncnn3c1)[nH]c(=O)n2[C@@H]1CCCN(CC(C)C)C1` [Example 177, (R)-6-ethyl-1-(1-isobutylpiperidin-3-yl)-5-(8-methoxy-[1,2,4]triazolo[1,5-a]pyridin-6-yl)-1,3-dihydro-2H-benzo[d]imidazol-2-one], which IC50 is on record?
Answer: 1.07 nM

Question: With `CCc1cc2c(cc1-c1cc(OC)c3ncnn3c1)[nH]c(=O)n2[C@@H]1CCCN(CC(CC)CC)C1` [Example 178, (R)-6-ethyl-1-(1-(2-ethylbutyl)piperidin-3-yl)-5-(8-methoxy-[1,2,4]triazolo[1,5-a]pyridin-6-yl)-1,3-dihydro-2H-benzo[d]imidazol-2-one] as the compound, how does the IC50 read?
Answer: 0.81 nM

Question: How did the IC50 turn out when `CCCN1CCC[C@@H](n2c(=O)[nH]c3cc(-c4cc(OC)c5ncnn5c4)c(CC)cc32)C1` [Example 179, (R)-6-ethyl-5-(8-methoxy-[1,2,4]triazolo[1,5-a]pyridin-6-yl)-1-(1-propylpiperidin-3-yl)-1,3-dihydro-2H-benzo[d]imidazol-2-one] was run?
Answer: 1.06 nM

Question: With `CCc1cc2c(cc1-c1cc(OC)c3ncnn3c1)[nH]c(=O)n2[C@@H]1CCCN(CC(C)(C)C)C1` [Example 180, (R)-6-ethyl-5-(8-methoxy-[1,2,4]triazolo[1,5-a]pyridin-6-yl)-1-(1-neopentylpiperidin-3-yl)-1,3-dihydro-2H-benzo[d]imidazol-2-one] as the compound, how does the IC50 read?
Answer: 1.42 nM

Question: For `CCc1cc2c(cc1-c1cc(OC)c3ncnn3c1)[nH]c(=O)n2[C@@H]1CCCN(CC2CCC2)C1` [Example 181, (R)-1-(1-(cyclobutylmethyl)piperidin-3-yl)-6-ethyl-5-(8-methoxy-[1,2,4]triazolo[1,5-a]pyridin-6-yl)-1,3-dihydro-2H-benzo[d]imidazol-2-one], which IC50 is on record?
Answer: 0.81 nM

Question: For `CCc1cc2c(cc1-c1cc(OC)c3ncnn3c1)[nH]c(=O)n2[C@@H]1CCCN(CC2CC2)C1` [Example 182, (R)-1-(1-(cyclopropylmethyl)piperidin-3-yl)-6-ethyl-5-(8-methoxy-[1,2,4]triazolo[1,5-a]pyridin-6-yl)-1,3-dihydro-2H-benzo[d]imidazol-2-one], which IC50 is on record?
Answer: 1.93 nM

Question: Which IC50 does the source give for `CCc1cc2c(cc1-c1cc(OC)c3ncnn3c1)[nH]c(=O)n2[C@@H]1CCCN(CCC(F)(F)F)C1` [Example 183, (R)-6-ethyl-5-(8-methoxy-[1,2,4]triazolo[1,5-a]pyridin-6-yl)-1-(1-(3,3,3-trifluoropropyl)piperidin-3-yl)-1,3-dihydro-2H-benzo[d]imidazol-2-one] here?
Answer: 12.2 nM

Question: How did the IC50 turn out when `CCc1cc2c(cc1-c1cc(OC)c3ncnn3c1)[nH]c(=O)n2[C@@H]1CCCN(C2CCOCC2)C1` [Example 184, (R)-6-ethyl-5-(8-methoxy-[1,2,4]triazolo[1,5-a]pyridin-6-yl)-1-(1-(tetrahydro-2H-pyran-4-yl)piperidin-3-yl)-1,3-dihydro-2H-benzo[d]imidazol-2-one] was run?
Answer: 12.1 nM

Question: With `Cc1c(-c2cc3[nH]c(=O)n([C@H]4CC[C@@H](N(C)C)CC4)c3cc2C(C)C)cn2ncnc2c1C` [Example 185, 5-(7,8-dimethyl-[1,2,4]triazolo[1,5-a]pyridin-6-yl)-1-((1s,4s)-4-(dimethylamino)cyclohexyl)-6-isopropyl-1,3-dihydro-2H-benzo[d]imidazol-2-one] as the compound, how does the IC50 read?
Answer: 3.39 nM

Question: `Cc1c(-c2cc3[nH]c(=O)n([C@H]4CC[C@@H](NC(C)C)CC4)c3cc2C(C)C)cn2ncnc2c1C` [Example 186, 5-(7,8-dimethyl-[1,2,4]triazolo[1,5-a]pyridin-6-yl)-6-isopropyl-1-((1s,4s)-4-(isopropylamino)cyclohexyl)-1,3-dihydro-2H-benzo[d]imidazol-2-one] was tested. Which IC50 did it give?
Answer: 0.95 nM

Question: With `Cc1c(-c2cc3[nH]c(=O)n([C@H]4CC[C@@H](NC5CCOCC5)CC4)c3cc2C(C)C)cn2ncnc2c1C` [Example 187, 5-(7,8-dimethyl-[1,2,4]triazolo[1,5-a]pyridin-6-yl)-6-isopropyl-1-((1s,4s)-4-((tetrahydro-2H-pyran-4-yl)amino)cyclohexyl)-1,3-dihydro-2H-benzo[d]imidazol-2-one] as the compound, how does the IC50 read?
Answer: 4.09 nM

Question: For `Cc1c(-c2cc3[nH]c(=O)n([C@H]4CC[C@@H](NC5COC5)CC4)c3cc2C(C)C)cn2ncnc2c1C` [Example 188, 5-(7,8-dimethyl-[1,2,4]triazolo[1,5-a]pyridin-6-yl)-6-isopropyl-1-((1s,4s)-4-(oxetan-3-ylamino)cyclohexyl)-1,3-dihydro-2H-benzo[d]imidazol-2-one], which IC50 is on record?
Answer: 7.14 nM

Question: With `CCN[C@H]1CC[C@@H](n2c(=O)[nH]c3cc(-c4cn5ncnc5c(C)c4C)c(C(C)C)cc32)CC1` [Example 189, 5-(7,8-dimethyl-[1,2,4]triazolo[1,5-a]pyridin-6-yl)-1-((1s,4s)-4-(ethylamino)cyclohexyl)-6-isopropyl-1,3-dihydro-2H-benzo[d]imidazol-2-one] as the compound, how does the IC50 read?
Answer: 9.82 nM

Question: With `Cc1c(-c2cc3[nH]c(=O)n([C@H]4CC[C@@H](NCC(C)(C)C)CC4)c3cc2C(C)C)cn2ncnc2c1C` [Example 190, 5-(7,8-dimethyl-[1,2,4]triazolo[1,5-a]pyridin-6-yl)-6-isopropyl-1-((1s,4s)-4-(neopentylamino)cyclohexyl)-1,3-dihydro-2H-benzo[d]imidazol-2-one] as the compound, how does the IC50 read?
Answer: 5.72 nM

Question: How did the IC50 turn out when `COc1cc(-c2cc3[nH]c(=O)n([C@H]4CC[C@@H](N(C)C)CC4)c3cc2C(C)C)cn2ncnc12` [Example 191, 1-((1s,4s)-4-(dimethylamino)cyclohexyl)-6-isopropyl-5-(8-methoxy-[1,2,4]triazolo[1,5-a]pyridin-6-yl)-1,3-dihydro-2H-benzo[d]imidazol-2-one] was run?
Answer: 1.49 nM

Question: Which IC50 does the source give for `COc1cc(-c2cc3[nH]c(=O)n([C@H]4CC[C@@H](NC(C)C)CC4)c3cc2C(C)C)cn2ncnc12` [Example 192, 6-isopropyl-1-((1s,4s)-4-(isopropylamino)cyclohexyl)-5-(8-methoxy-[1,2,4]triazolo[1,5-a]pyridin-6-yl)-1,3-dihydro-2H-benzo[d]imidazol-2-one] here?
Answer: 1.97 nM

Question: `COc1cc(-c2cc3[nH]c(=O)n([C@H]4CC[C@@H](NC5CCOCC5)CC4)c3cc2C(C)C)cn2ncnc12` [Example 193, 6-isopropyl-5-(8-methoxy-[1,2,4]triazolo[1,5-a]pyridin-6-yl)-1-((1s,4s)-4-((tetrahydro-2H-pyran-4-yl)amino)cyclohexyl)-1,3-dihydro-2H-benzo[d]imidazol-2-one] was tested. Which IC50 did it give?
Answer: 2.22 nM

Question: For `CCC(CC)CN[C@H]1CC[C@@H](n2c(=O)[nH]c3cc(-c4cc(OC)c5ncnn5c4)c(C(C)C)cc32)CC1` [Example 194], which IC50 is on record?
Answer: 2.28 nM

Question: Which IC50 does the source give for `CCCN[C@H]1CC[C@@H](n2c(=O)[nH]c3cc(-c4cc(OC)c5ncnn5c4)c(C(C)C)cc32)CC1` [Example 195, 6-isopropyl-5-(8-methoxy-[1,2,4]triazolo[1,5-a]pyridin-6-yl)-1-((1 s,4s)-4-(propylamino)cyclohexyl)-1,3-dihydro-2H-benzo[d]imidazol-2-one] here?
Answer: 1.39 nM

Question: Which IC50 does the source give for `COc1cc(-c2cc3[nH]c(=O)n([C@H]4CC[C@@H](NCC5CCOCC5)CC4)c3cc2C(C)C)cn2ncnc12` [Example 196, 6-isopropyl-5-(8-methoxy-[1,2,4]triazolo[1,5-a]pyridin-6-yl)-1-((1s,4s)-4-(((tetrahydro-2H-pyran-4-yl)methyl)amino)cyclohexyl)-1,3-dihydro-2H-benzo[d]imidazol-2-one] here?
Answer: 4.1 nM
